# Source: the OPERA property sets (Mansouri et al. 2018)
# Conditions: 25 °C
row,Compound,solubility [mM]
1,CCNc1ccccc1,19.9
2,c1ccc(NNc2ccccc2)cc1,1.2
3,CCCCC(=O)OC,43.6
4,CCCCCCl,1.85
5,CCCOC(=O)c1ccccc1,2.14
6,Nc1cccc(C(F)(F)F)c1,33.9
7,CCC(C)(C)Cl,3.09
8,CC(O)CNCC(C)O (centres undefined),6490
9,CCCNCCC,579
10,CCCCCCCl,0.754
11,Brc1ccc2ccccc2c1,0.0398
12,Brc1cccc(Br)c1Br,0.00912
13,Cc1cc(O)ccc1Cl,26.9
14,COC(=O)c1ccc(C(=O)OC)cc1,0.0978
